Assay results reported in ChEMBL document CHEMBL1134241, “Spatial requirements of the antagonist binding site of the NK2 receptor” (Bioorg Med Chem Lett, 2001).

target: T1, Substance-K receptor (Homo sapiens, UniProt P21452); test: Binding affinity for heterologously expressed human Tachykinin receptor 2 using [3H]-SR- 48968 as radioligand
T1 sequence (P21452 whole entry): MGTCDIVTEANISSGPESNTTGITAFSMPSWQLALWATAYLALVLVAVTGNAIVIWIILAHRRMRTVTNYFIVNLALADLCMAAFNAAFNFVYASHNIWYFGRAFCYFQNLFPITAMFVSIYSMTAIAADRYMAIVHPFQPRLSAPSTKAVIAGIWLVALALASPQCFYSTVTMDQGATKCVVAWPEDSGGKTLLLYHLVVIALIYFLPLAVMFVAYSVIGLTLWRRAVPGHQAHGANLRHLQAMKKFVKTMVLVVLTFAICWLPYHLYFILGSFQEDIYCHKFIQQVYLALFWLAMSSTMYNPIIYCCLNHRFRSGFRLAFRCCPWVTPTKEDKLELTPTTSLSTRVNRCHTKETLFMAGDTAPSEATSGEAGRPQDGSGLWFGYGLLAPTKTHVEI

SMILES | IC50
[O-][S+](CC1(O)CCN(CCc2c[nH]c3ccc(F)cc23)CC1)c1ccccc1 (racemic) [4-BENZENESULFINYLMETHYL-1-[2-(5-FLUORO-1H-INDOL-3-YL)-ETHYL]-PIPERIDIN-4-OL (STRUCTURAL MIX)] | 22 nM
COC1(C[S+]([O-])c2ccccc2)CCN(CCc2c[nH]c3ccc(F)cc23)CC1 (racemic) | 2.5 nM
[O-][S+](C[C@]1(O)CCN2CCc3c([nH]c4ccc(F)cc34)[C@H]2C1)c1ccccc1 (mixture of isomers) | 25300 nM
[O-][S+](CC1(O)CCN(CCc2c[nH]c3ccc(F)cc23)CC1)c1ccc2ccccc2c1 (racemic) | 13.4 nM
[O-][S+](c1ccccc1)C(c1ccccc1)C1(O)CCN(CCc2c[nH]c3ccc(F)cc23)CC1 (racemic) | 111 nM

Now from value to compound:

IC50 | SMILES
14.3 nM | CN(C[C@@H](CCN1CCC(NC(=O)c2ccccc2)(c2ccccc2)CC1)c1ccc(Cl)c(Cl)c1)C(=O)c1ccccc1 (racemic)
6 nM | CN(C)C(=O)NC1(c2ccccc2)CCN(CC[C@@]2(c3ccc(F)c(F)c3)CN(C(=O)c3ccccc3)CCO2)CC1 (racemic)
